In brackets after ≈: the same amount, converted by molar mass. Read-outs that look alike come from different tables or passages of the source.
Assays:
[1] = system: methicillin-sensitive Staphylococcus aureus; assay: MIC by broth micro-dilution (CLSI), methicillin-sensitive S. aureus; type: cell-based; conditions: MSSA S. aureus ATCC29213
[2] = system: carbapenem sensitive Escherichia coli; assay: MIC by broth micro-dilution (CLSI), carbapenem sensitive E. coli; type: cell-based
[3] = system: carbapenemase producing K. pneumoniae; assay: MIC by broth micro-dilution (CLSI), carbapenemase producing K. pneumoniae; type: cell-based, Klebsiella pneumoniae
[4] = system: carbapenem sensitive Pseudomonas aeruginosa; assay: MIC by broth micro-dilution (CLSI), carbapenem sensitive P. aeruginosa; type: cell-based
[5] = Staphylococcus aureus, ATCC 29213 / MSSA, read-out: MIC
[6] = Escherichia coli, ATCC25922, ESBL −ve E. coli ATCC25922, read-out: MIC
[7] = Klebsiella pneumoniae, ATCCBAA1705, KPC-2 K. pneumoniae ATCC BAA-1705, read-out: MIC
[8] = Meropenem susceptible P. aeruginosa ATCC27853
[9] = KPC-2 K. pneumoniae ATCC BAA-1705
[10] = Pseudomonas aeruginosa, ATCC27853, Meropenem susceptible P. aeruginosa ATCC27853, read-out: MIC

| Structure (SMILES) | MIC [1, 5] | MIC [2, 6] | MIC [3, 7] | MIC [4, 8] | MIC [1] | MIC ([2]; ESBL −ve E. coli ATCC25922) | MIC [3, 9] | MIC [4, 10] |
| --- | --- | --- | --- | --- | --- | --- | --- | --- |
| C[C@@H](NC(=O)Cn1cnnn1)[C@H]1C(=O)N2C(C(=O)O)=C(S[C@@H]3CN[C@H](C(=O)N4CCC5CNCC54CO)C3)[C@H](C)[C@H]12 (single isomer, unassigned) [Example 561] | 4 µg/mL (≈ 6.78 µM) | 0.5 µg/mL (≈ 0.848 µM) | 2 µg/mL (≈ 3.39 µM) |  |  |  |  | 8 µg/mL (≈ 13.6 µM) |
| C[C@@H](NC(=O)Cn1cnnn1)[C@H]1C(=O)N2C(C(=O)O)=C(S[C@@H]3CN[C@H](C(=O)N4CC5CCN(C(=N)N)C5C4)C3)[C@H](C)[C@H]12 (single isomer, unassigned) [Example 569] | 2 µg/mL (≈ 3.32 µM) | 0.25 µg/mL (≈ 0.415 µM) | 1 µg/mL (≈ 1.66 µM) |  |  |  |  | 2 µg/mL (≈ 3.32 µM) |
| C[C@@H](NC(=O)Cn1cnnn1)[C@H]1C(=O)N2C(C(=O)O)=C(S[C@@H]3CN[C@H](C(=O)N4CC5CCN(C(=N)N)C5C4)C3)[C@H](C)[C@H]12 (single isomer, unassigned) [Example 570] |  |  |  | 2 µg/mL (≈ 3.32 µM) | 1 µg/mL (≈ 1.66 µM) | 0.125 µg/mL (≈ 0.208 µM) | 1 µg/mL (≈ 1.66 µM) |  |
| C[C@@H](NC(=O)Cn1cnnn1)[C@H]1C(=O)N2C(C(=O)O)=C(S[C@@H]3CN[C@H](C(=O)N4CCC(C(=O)NCC(O)CN)CC4)C3)[C@H](C)[C@H]12 (single isomer, unassigned) [Example 572] | 4 µg/mL (≈ 6.17 µM) | 0.25 µg/mL (≈ 0.385 µM) | 2 µg/mL (≈ 3.08 µM) | 4 µg/mL (≈ 6.17 µM) |  |  |  |  |
| C[C@@H](NC(=O)Cn1cnnn1)[C@H]1C(=O)N2C(C(=O)O)=C(S[C@@H]3CN[C@H](C(=O)N4CCC(C(=O)NCC(O)CN)CC4)C3)[C@H](C)[C@H]12 (single isomer, unassigned) [Example 573] |  |  |  | 1 µg/mL (≈ 1.54 µM) | 4 µg/mL (≈ 6.17 µM) | 0.125 µg/mL (≈ 0.193 µM) | 2 µg/mL (≈ 3.08 µM) |  |
| C[C@@H](NC(=O)Cn1cnnn1)[C@H]1C(=O)N2C(C(=O)O)=C(S[C@@H]3CN[C@H](C(=O)N4CC5CCN(CCN)C5C4)C3)[C@H](C)[C@H]12 (single isomer, unassigned) [Example 578] | 2 µg/mL (≈ 3.32 µM) | 0.25 µg/mL (≈ 0.415 µM) | 1 µg/mL (≈ 1.66 µM) |  |  |  |  | 4 µg/mL (≈ 6.64 µM) |
| C[C@@H](NC(=O)Cn1cnnn1)[C@H]1C(=O)N2C(C(=O)O)=C(S[C@@H]3CN[C@H](C(=O)N4CC(N)C(CO)C4)C3)[C@H](C)[C@H]12 (single isomer, unassigned) [Example 586] | 4 µg/mL (≈ 7.1 µM) | 0.25 µg/mL (≈ 0.444 µM) | 1 µg/mL (≈ 1.77 µM) |  |  |  |  | 2 µg/mL (≈ 3.55 µM) |
| C[C@@H](NC(=O)Cn1cnnn1)C1C(=O)N2C(C(=O)O)=C(S[C@@H]3CN[C@H](C(=O)N4CCN(C[C@@H](F)CN)CC4)C3)[C@H](C)C12 (stereo in doubt) [Example 462, (4R,5S,6R)-6-((R)-1-(2-(1H-tetrazol-1-yl)acetamido)ethyl)-3-((3S,5S)-5-(4-((S)-3-amino-2-fluoropropyl)piperazine-1-carbonyl)pyrrolidin-3-ylthio)-4-methyl-7-oxo-1-azabicyclo[3.2.0]hept-2-ene-2-carboxylic acid] | 4 µg/mL (≈ 6.57 µM) | 0.25 µg/mL (≈ 0.411 µM) | 1 µg/mL (≈ 1.64 µM) |  |  |  |  | 2 µg/mL (≈ 3.29 µM) |

The remaining lines, values ahead:

| MIC [1, 5] | MIC [2, 6] | MIC [3, 7] | MIC [4, 8] | MIC [1] | MIC ([2]; ESBL −ve E. coli ATCC25922) | MIC [3, 9] | MIC [4, 10] | Structure (SMILES) |
| --- | --- | --- | --- | --- | --- | --- | --- | --- |
| 1 µg/mL (≈ 1.62 µM) | 0.25 µg/mL (≈ 0.406 µM) | 1 µg/mL (≈ 1.62 µM) | 4 µg/mL (≈ 6.5 µM) |  |  |  |  | C[C@@H](NC(=O)Cn1cnnn1)[C@H]1C(=O)N2C(C(=O)O)=C(S[C@@H]3CN[C@H](C(=O)N4CCC5CN(C(=N)N)CCC54)C3)[C@H](C)[C@H]12 (single isomer, unassigned) [Example 559] |
|  |  |  | 1 µg/mL (≈ 1.62 µM) | 1 µg/mL (≈ 1.62 µM) | 0.125 µg/mL (≈ 0.203 µM) | 0.5 µg/mL (≈ 0.812 µM) |  | C[C@@H](NC(=O)Cn1cnnn1)[C@H]1C(=O)N2C(C(=O)O)=C(S[C@@H]3CN[C@H](C(=O)N4CCC5CN(C(=N)N)CCC54)C3)[C@H](C)[C@H]12 (single isomer, unassigned) [Example 560] |
|  |  |  | 2 µg/mL (≈ 3.55 µM) | 4 µg/mL (≈ 7.1 µM) | 0.25 µg/mL (≈ 0.444 µM) | 2 µg/mL (≈ 3.55 µM) |  | C[C@@H](NC(=O)Cn1cnnn1)[C@H]1C(=O)N2C(C(=O)O)=C(S[C@@H]3CN[C@H](C(=O)N4CC(N)C(CO)C4)C3)[C@H](C)[C@H]12 (single isomer, unassigned) [Example 587] |
| 4 µg/mL (≈ 7.33 µM) | 0.25 µg/mL (≈ 0.458 µM) | 1 µg/mL (≈ 1.83 µM) |  |  |  |  | 1 µg/mL (≈ 1.83 µM) | C[C@@H](NC(=O)Cn1cnnn1)[C@H]1C(=O)N2C(C(=O)O)=C(S[C@@H]3CN[C@H](C(=O)N4CC5CNC5C4)C3)[C@H](C)[C@H]12 (single isomer, unassigned) [Example 590] |
| 32 µg/mL (≈ 59.8 µM) | 4 µg/mL (≈ 7.48 µM) | 4 µg/mL (≈ 7.48 µM) |  |  |  |  | 32 µg/mL (≈ 59.8 µM) | C[C@@H](NC(=O)CC1CCCN1)[C@H]1C(=O)N2C(C(=O)O)=C(S[C@@H]3CN[C@H](C(=O)N4CCC(N)C4)C3)[C@H](C)[C@H]12 (stereo in doubt) [Example 509, (4R,5S,6R)-3-((3S,5S)-5-((R)-3-aminopyrrolidine-1-carbonyl)pyrrolidin-3-ylthio)-4-methyl-7-oxo-6-((R)-1-(2-((S)-pyrrolidin-2-yl)acetamido)ethyl)-1-azabicyclo[3.2.0]hept-2-ene-2-carboxylic acid] |
